Columns and labels:
Experiment in all cases: relative viability (nuclei count vs DMSO), 5 days (fraction); higher = more cells survive
[1] = compound: C=C(c1ccc(C(=O)O)cc1)c1cc2c(cc1C)C(C)(C)CCC2(C)C [Bexarotene] + CC(=O)c1c(C)c2cnc(Nc3ccc(N4CCNCC4)cn3)nc2n(C2CCCC2)c1=O [Palbociclib] (partner 0.5 µM)
In short: (§1)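 Lung cancer cell lines, seeded in 1536-well plates, were treated the following day by pin tool with a single drug or with five library-drug doses (not always all listed) in √10 steps on top of a fixed anchor-drug dose. Cells were fixed and nuclei stained in one step after 5 days, and nuclei were counted. Relative viability is the nuclei count for treated wells divided by that for vehicle wells, reported as medians of duplicate plates.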

[2] = compound: C=C(c1ccc(C(=O)O)cc1)c1cc2c(cc1C)C(C)(C)CCC2(C)C [Bexarotene] + C[C@@H](Oc1cc(-c2cnn(C3CCNCC3)c2)cnc1N)c1c(Cl)ccc(F)c1Cl [Crizotinib] (partner 1 µM)
In short: as §1

[3] = compound: C=C(c1ccc(C(=O)O)cc1)c1cc2c(cc1C)C(C)(C)CCC2(C)C [Bexarotene] + NC(=O)Nc1cc(-c2cccc(F)c2)sc1C(=O)N[C@H]1CCCNC1 [AZD7762] (partner 0.2 µM)
In short: as §1

[4] = compound: C=C(c1ccc(C(=O)O)cc1)c1cc2c(cc1C)C(C)(C)CCC2(C)C [Bexarotene] + O=C(CCCCCCC(=O)Nc1ccccc1)NO [Vorinostat] (partner 1 µM)
In short: as §1

Row | Cell Line | relative viability ([1]; first compound 0.08 µM) | relative viability ([1]; first compound 0.253 µM) | relative viability ([1]; first compound 0.8 µM) | relative viability ([1]; first compound 2.53 µM) | relative viability ([1]; first compound 8 µM) | relative viability ([2]; first compound 0.08 µM) | relative viability ([2]; first compound 0.253 µM) | relative viability ([2]; first compound 0.8 µM) | relative viability ([2]; first compound 2.53 µM) | relative viability ([2]; first compound 8 µM) | relative viability ([3]; first compound 0.08 µM) | relative viability ([3]; first compound 0.253 µM) | relative viability ([3]; first compound 0.8 µM) | relative viability ([3]; first compound 2.53 µM) | relative viability ([3]; first compound 8 µM) | relative viability ([4]; first compound 0.08 µM) | relative viability ([4]; first compound 0.253 µM) | relative viability ([4]; first compound 0.8 µM) | relative viability ([4]; first compound 2.53 µM) | relative viability ([4]; first compound 8 µM)
1 | NCI-H23 | 0.554 | 0.567 | 0.571 | 0.555 | 0.543 | 0.534 | 0.561 | 0.514 | 0.647 | 0.529 | 0.297 | 0.239 | 0.231 | 0.261 | 0.196 | 0.715 | 0.782 | 0.599 | 0.453 | 0.541
2 | NCI-H322M | 0.437 | 0.469 | 0.487 | 0.531 | 0.532 | 0.829 | 1.06 | 0.87 | 0.93 | 1.04 | 0.518 | 0.645 | 0.585 | 0.548 | 0.568 | 0.978 | 0.983 | 0.945 | 0.757 | 0.934
3 | NCI-H358 | 0.129 | 0.138 | 0.154 | 0.124 | 0.138 | 0.541 | 0.603 | 0.497 | 0.66 | 0.49 | 0.546 | 0.511 | 0.505 | 0.49 | 0.572 | 0.7 | 0.798 | 0.667 | 0.934 | 0.703
4 | NCI-H441 | 0.295 | 0.228 | 0.256 | 0.243 | 0.23 | 0.742 | 0.708 | 0.94 | 0.635 | 0.738 | 1.5 | 1.28 | 1.24 | 1.1 | 1.01 | 0.679 | 0.805 | 0.628 | 0.716 | 0.547
5 | NCI-H460 | 0.147 | 0.156 | 0.237 | 0.105 | 0.158 | 0.91 | 1.1 | 0.908 | 0.845 | 0.766 | 0.694 | 0.701 | 0.701 | 0.668 | 0.735 | 0.812 | 0.752 | 0.644 | 0.716 | 0.67
6 | NCI-H647 | 0.467 | 0.358 | 0.443 | 0.367 | 0.369 | 1.38 | 1.18 | 1.19 | 1.12 | 0.912 | 0.429 | 0.463 | 0.459 | 0.272 | 0.33 | 0.544 | 0.917 | 0.826 | 0.978 | 0.538
7 | NCI-H650 | 0.306 | 0.286 | 0.294 | 0.311 | 0.339 | 0.749 | 0.613 | 0.739 | 0.615 | 0.6 | 1.13 | 0.986 | 1.17 | 0.709 | 1.05 | 0.542 | 0.497 | 0.429 | 0.457 | 0.467
8 | NCI-H727 | 0.683 | 0.578 | 0.595 | 0.696 | 0.711 | 0.856 | 0.912 | 0.87 | 0.677 | 0.708 | 0.537 | 0.635 | 0.598 | 0.617 | 0.633 | 1.46 | 1.16 | 1.26 | 1.18 | 0.971

Source: the supplement of paper PMC10307832
